Key:
[1] = target: BIR3 domain of XIAP (Homo sapiens (Human), UniProt P98170); assay: TR-FRET assay for BIR3 (inhibition of binding of XIAP BIR3 domain to Peptide A); conditions: 6x His-tagged BIR3 domain (aa 241-356 of XIAP), 20 nM Peptide A
Method: (§1) TR-FRET Assay for BIR2 and BIR3
(§2) The peptides were labeled with the fluorescent tags FITC or TAMRA and Kd values were determined by fluorescence polarization assay. […] The peptide sequence was derivatized with biotin to provide […]-(ε-biotin)-OH 1:2 TFA as the substrate for the TR-FRET assay.
The sequence of the BIR3 domain used for the TR-FRET assay is
(§3) Time-resolved fluorescence resonance energy transfer (TR-FRET) signals were measured 1 hour later at room temperature. Test compound potency was assessed at 10 serially diluted concentrations. Percentage of inhibition at each concentration was determined to generate an IC50 value for each test compound.

[2] = target: BIR2 domain of XIAP (Homo sapiens (Human), UniProt P98170, C202A/C213G); assay: TR-FRET assay for BIR2 (inhibition of binding of XIAP BIR2 domain to Peptide A); conditions: 6x His-tagged BIR2 domain (aa 124-240 of XIAP), 20 nM Peptide A
BIR2 domain of XIAP, sequence (P98170 other isoform, or with tags, fused parts or gaps, stated change not applied): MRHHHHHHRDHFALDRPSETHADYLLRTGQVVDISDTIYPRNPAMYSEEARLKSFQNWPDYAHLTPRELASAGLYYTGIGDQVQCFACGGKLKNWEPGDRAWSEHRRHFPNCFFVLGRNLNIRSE
Method: as §1, §2
The XIAP protein sequence was obtained from the SWISS-PROT protein sequence database and the BIR2 and BIR3 domains were derived from that. The sequence of the BIR2 domain used for the TR-FRET assay is
as §3

BIR3 domain of XIAP, sequence (P98170 other isoform, or with tags, fused parts or gaps): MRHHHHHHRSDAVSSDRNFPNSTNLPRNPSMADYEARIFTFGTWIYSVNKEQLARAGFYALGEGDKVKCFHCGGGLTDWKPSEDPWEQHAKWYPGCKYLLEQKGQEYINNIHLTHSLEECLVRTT

| SMILES | IC50 [1] [µM] | IC50 [2] [nM] |
| --- | --- | --- |
| CN[C@@H](C)C(=O)N[C@H](C(=O)N1CCc2ccc(Cl)cc2[C@H]1C(=O)Nc1c(F)cccc1F)C(C)C [Example 45, 7-chloro-N-(2,6-difluorophenyl)-2-((S)-3-methyl-2-((S)-2-(methylamino)propanamido)butanoyl)-1,2,3,4-tetrahydroisoquinoline-1-carboxamide] | > 54.8 | 47 |
| CN[C@@H](C)C(=O)N[C@H](C(=O)N1CCc2ccc(F)cc2[C@@H]1C(=O)Nc1c(F)cccc1F)C(C)C [Example 41, N-(2,6-difluorophenyl)-7-fluoro-2-((S)-3-methyl-2-((S)-2-(methylamino)propanamido)butanoyl)-1,2,3,4-tetrahydroisoquinoline-1-carboxamide] | > 54.8 | 2350 |
| CN[C@@H](C)C(=O)N[C@H](C(=O)N1CCc2ccc(F)cc2[C@H]1C(=O)Nc1c(F)cccc1F)C(C)C [Example 42, N-(2,6-difluorophenyl)-7-fluoro-2-((S)-3-methyl-2-((S)-2-(methylamino)propanamido)butanoyl)-1,2,3,4-tetrahydroisoquinoline-1-carboxamide] | > 54.8 | 27 |
| CN[C@@H](C)C(=O)N[C@H](C(=O)N1CCc2ccc(Cl)cc2[C@@H]1C(=O)Nc1c(F)cccc1F)C(C)C [Example 44, 7-chloro-N-(2,6-difluorophenyl)-2-((S)-3-methyl-2-((S)-2-(methylamino)propanamido)butanoyl)-1,2,3,4-tetrahydroisoquinoline-1-carboxamide] | > 54.8 | 4710 |

Source: patent publication US9422332B2, “Azaheterocycles as BIR2 and/or BIR3 inhibitors” (Hoffmann-La Roche Inc., priority 2012, dated 2016)
